Results reported in publication PMC10184127 (Journal of Medicinal Chemistry, 2023).

Legend:
AgAChE1 = AgAChE1 (Anopheles gambiae, UniProt Q869C3)
hAChE = hAChE (Homo sapiens, UniProt P22303)
[1] = at higher concentrations

Sequence of AgAChE1 (Q869C3 39-737): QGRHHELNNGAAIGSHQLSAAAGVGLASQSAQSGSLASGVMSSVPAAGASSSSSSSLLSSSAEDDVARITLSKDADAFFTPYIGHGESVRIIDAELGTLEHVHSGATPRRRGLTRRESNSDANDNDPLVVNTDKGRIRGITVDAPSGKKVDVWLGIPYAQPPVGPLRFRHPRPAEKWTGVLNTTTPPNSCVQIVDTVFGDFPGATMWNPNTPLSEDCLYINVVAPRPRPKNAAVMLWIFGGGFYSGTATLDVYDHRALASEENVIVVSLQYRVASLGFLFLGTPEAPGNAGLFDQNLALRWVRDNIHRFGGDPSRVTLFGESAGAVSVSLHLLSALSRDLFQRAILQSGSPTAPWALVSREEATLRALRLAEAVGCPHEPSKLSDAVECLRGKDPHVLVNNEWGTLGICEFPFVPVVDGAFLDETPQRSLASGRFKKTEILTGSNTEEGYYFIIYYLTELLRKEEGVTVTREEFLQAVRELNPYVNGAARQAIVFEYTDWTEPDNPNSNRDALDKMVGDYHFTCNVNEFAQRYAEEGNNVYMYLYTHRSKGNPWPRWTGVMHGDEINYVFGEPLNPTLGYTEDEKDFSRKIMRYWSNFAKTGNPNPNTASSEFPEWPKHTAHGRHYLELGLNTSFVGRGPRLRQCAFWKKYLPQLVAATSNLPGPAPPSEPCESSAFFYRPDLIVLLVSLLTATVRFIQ
Sequence of hAChE (P22303 32-614): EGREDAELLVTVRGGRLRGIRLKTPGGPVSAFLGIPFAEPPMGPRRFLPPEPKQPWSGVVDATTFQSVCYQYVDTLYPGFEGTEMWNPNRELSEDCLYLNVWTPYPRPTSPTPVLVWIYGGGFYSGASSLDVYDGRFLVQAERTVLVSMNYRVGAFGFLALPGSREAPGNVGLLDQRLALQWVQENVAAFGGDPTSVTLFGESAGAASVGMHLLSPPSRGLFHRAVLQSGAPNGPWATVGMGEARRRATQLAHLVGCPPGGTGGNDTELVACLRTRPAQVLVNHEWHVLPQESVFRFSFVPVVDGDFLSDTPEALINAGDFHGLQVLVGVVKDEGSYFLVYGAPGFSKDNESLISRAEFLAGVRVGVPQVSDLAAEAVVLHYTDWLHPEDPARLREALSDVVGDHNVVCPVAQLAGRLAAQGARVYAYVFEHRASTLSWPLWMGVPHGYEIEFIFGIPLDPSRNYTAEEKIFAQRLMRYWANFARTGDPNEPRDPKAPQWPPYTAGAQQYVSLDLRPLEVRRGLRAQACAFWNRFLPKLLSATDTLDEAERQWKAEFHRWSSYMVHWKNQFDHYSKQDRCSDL

SMILES: Cl.O=C1CSC(c2ccc(F)cc2)N1CCNC1CC1 (stereo not drawn) [compound 49, 3-(2-(Cyclopropylamino)ethyl)-2-(4-fluorophenyl)thiazolidin-4-one Hydrochloride]
- loss of potency vs 3-carbon chain dimethylamine analogue (AgAChE1): 13 fold

SMILES: O=C1CSC(c2ccccc2)N1CCc1ccc(F)cc1 (stereo not drawn) [compound 9, 3-(4-Fluorophenethyl)-2-phenylthiazolidin-4-one]
- IC50 (μM) AgAChE1 (AgAChE1): Inactive
- inhibitory activity towards AgAChE1 (AgAChE1): no detectable inhibitory activity

SMILES: CNCCN1C(=O)CSC1c1cccc2ccccc12.Cl (stereo not drawn) [compound 54, N-Methyl-2-(2-(naphthalen-1-yl)-4-oxothiazolidin-3-yl)ethan-1-aminium Chloride]
- times weaker binders than their tertiary amine analogues (AgAChE1): over 10 times

SMILES: CN(C)CCN1C(=O)CSC1c1ccc(Cl)cc1Cl.Cl (stereo not drawn) [compound 38, 2-(2,4-Dichlorophenyl)-3-(2-(dimethylamino)ethyl)thiazolidin-4-one Hydrochloride]
- activity against hAChE (hAChE): inactive

SMILES: CC(C)NCCN1C(=O)CSC1c1cccc2ccccc12.Cl (stereo not drawn) [compound 43, 3-(2-(Isopropylamino)ethyl)-2-(naphthalen-1-yl)thiazolidin-4-one Hydrochloride]
- times weaker binders than their tertiary amine analogues (AgAChE1): over 10 times

SMILES: CN(C)CCN1C(=O)CSC1c1ccc(F)cc1.Cl (stereo not drawn) [compound 37, 3-(2-(Dimethylamino)ethyl)-2-(4-fluorophenyl)thiazolidin-4-one Hydrochloride]
- activity against hAChE (hAChE): inactive

SMILES: [N-]=[N+]=NCCCN1C(=O)CSC1c1ccccc1 (stereo not drawn) [compound 17, 3-(3-Azidopropyl)-2-phenylthiazolidin-4-one]
- IC50 (μM) AgAChE1 (AgAChE1): Inactive
- inhibitory activity towards AgAChE1 (AgAChE1): no detectable inhibitory activity

SMILES: CN(C)CCN1C(=O)CSC1c1cccc2ccccc12.Cl (stereo not drawn) [compound 40, 3-(2-(Dimethylamino)ethyl)-2-(naphthalen-1-yl)thiazolidin-4-one Hydrochloride]
- activity against hAChE (hAChE): inactive

SMILES: CN(C)CCN1C(=O)CSC1c1cccc(F)c1F.Cl (stereo not drawn) [compound 39, 2-(2,3-Difluorophenyl)-3-(2-(dimethylamino)ethyl)thiazolidin-4-one Hydrochloride]
- activity against hAChE (hAChE): inactive

SMILES: CN(C)CCCN1C(=O)CSC1c1cccc2ccccc12.Cl (stereo not drawn) [compound 36, 3-(3-(Dimethylamino)propyl)-2-(naphthalen-1-yl)thiazolidin-4-one Hydrochloride]
- solubility [1]: reduced its solubility at higher concentrations
